PMC6839502 (Journal of Alzheimer's Disease, 2019)

Assay: Safety and tolerability
Assay type: in vivo, human
[1] = 5 mg QD 14 days, healthy adults, 8 evaluable
[2] = 15 mg QD 14 days, healthy adults, 8 evaluable
[3] = 50 mg QD 14 days, healthy adults, 8 evaluable
[4] = 50 mg QD 14 days, healthy older subjects, 10 evaluable
[5] = 125 mg QD 14 days, healthy adults, 12 evaluable
[6] = 125 mg QD 14 days, healthy older subjects, 8 evaluable

## C[C@H]1C[C@H]2CSC(N)=N[C@@]2(c2nc(NC(=O)c3ccc(OC(F)F)cn3)cs2)CO1 [PF-06751979]
[1]
  Back pain, all-causality: 0
  Fatigue (MedDRA preferred term), all-causality: 0
  Headache (MedDRA preferred term), all-causality: 0
  Hepatic enzyme increased, all-causality: 0
  Insomnia, all-causality: 0
  Musculoskeletal discomfort, all-causality: 0
  Number of AEs, all-causality treatment-emergent: 1 (1)
  Number of AEs, treatment related: 1 (1)
  Number of subjects with AEs, all-causality: 1 (1)
  Number of subjects with AEs, treatment related: 1 (1)
  Number of subjects with SAEs: 0
  Number of subjects with discontinuation due to AEs: 0
  Number of subjects with severe AEs: 0
  Number of subjects with temporary discontinuation or dose reduction due to AEs: 0
  Paresthesia, all-causality: 0
  Procedural pain, all-causality: 0
[2]
  Back pain, all-causality: 0
  Fatigue (MedDRA preferred term), all-causality: 0
  Headache (MedDRA preferred term), all-causality: 1 (1)
  Headache, treatment related: 1 (1)
  Hepatic enzyme increased, all-causality: 1 (1)
  Hepatic enzyme increased, treatment related: 1 (1)
  Insomnia, all-causality: 0
  Musculoskeletal discomfort, all-causality: 0
  Number of AEs, all-causality treatment-emergent: 2 (2)
  Number of AEs, treatment related: 2 (2)
  Number of subjects with AEs, all-causality: 2 (2)
  Number of subjects with AEs, treatment related: 2 (2)
  Number of subjects with SAEs: 0
  Number of subjects with discontinuation due to AEs: 0
  Number of subjects with severe AEs: 0
  Number of subjects with temporary discontinuation or dose reduction due to AEs: 0
  Paresthesia, all-causality: 0
  Procedural pain, all-causality: 0
15 mg QD, Day 21
  ALT peak, one subject: 7.7 ×ULN
  AST peak, one subject: 5.6 ×ULN
[3]
  Back pain, all-causality: 0
  Fatigue (MedDRA preferred term), all-causality: 0
  Headache (MedDRA preferred term), all-causality: 0
  Hepatic enzyme increased, all-causality: 0
  Insomnia, all-causality: 0
  Musculoskeletal discomfort, all-causality: 0
  Number of AEs, all-causality treatment-emergent: 1 (1)
  Number of AEs, treatment related: 1 (1)
  Number of subjects with AEs, all-causality: 1 (1)
  Number of subjects with AEs, treatment related: 1 (1)
  Number of subjects with SAEs: 0
  Number of subjects with discontinuation due to AEs: 0
  Number of subjects with severe AEs: 0
  Number of subjects with temporary discontinuation or dose reduction due to AEs: 0
  Paresthesia, all-causality: 0
  Procedural pain, all-causality: 0
[4]
  Abnormal dreams, all-causality: 2 (2)
  Abnormal dreams, treatment related: 2 (2)
  Dizziness, all-causality: 1
  Dizziness, treatment related: 0
  Fatigue (MedDRA preferred term), all-causality: 1 (1)
  Fatigue, treatment related: 1 (1)
  Headache (MedDRA preferred term), all-causality: 1
  Headache, treatment related: 0
  Number of AEs, all-causality treatment-emergent: 15
  Number of AEs, treatment related: 9
  Number of subjects with AEs, all-causality: 7
  Number of subjects with AEs, treatment related: 6
  Number of subjects with SAEs: 0
  Number of subjects with discontinuation due to AEs: 0
  Number of subjects with severe AEs: 0
  Number of subjects with temporary discontinuation or dose reduction due to AEs: 0
[5]
  Back pain, all-causality: 2
  Back pain, treatment related: 0
  Fatigue (MedDRA preferred term), all-causality: 2 (2)
  Fatigue, treatment related: 2 (2)
  Headache (MedDRA preferred term), all-causality: 3
  Headache, treatment related: 1
  Hepatic enzyme increased, all-causality: 1
  Hepatic enzyme increased, treatment related: 0
  Insomnia, all-causality: 1 (1)
  Insomnia, treatment related: 1 (1)
  Musculoskeletal discomfort, all-causality: 3
  Musculoskeletal discomfort, treatment related: 0
  Number of AEs, all-causality treatment-emergent: 22
  Number of AEs, treatment related: 6
  Number of subjects with AEs, all-causality: 10
  Number of subjects with AEs, treatment related: 4
  Number of subjects with SAEs: 0
  Number of subjects with discontinuation due to AEs: 0
  Number of subjects with severe AEs: 0
  Number of subjects with temporary discontinuation or dose reduction due to AEs: 0
  Paresthesia, all-causality: 1
  Paresthesia, treatment related: 0
  Procedural pain, all-causality: 2
  Procedural pain, treatment related: 0
[6]
  Abnormal dreams, all-causality: 0
  Dizziness, all-causality: 0
  Fatigue (MedDRA preferred term), all-causality: 1 (1)
  Fatigue, treatment related: 1 (1)
  Headache (MedDRA preferred term), all-causality: 1 (1)
  Headache, treatment related: 1 (1)
  Number of AEs, all-causality treatment-emergent: 11
  Number of AEs, treatment related: 7
  Number of subjects with AEs, all-causality: 6
  Number of subjects with AEs, treatment related: 5
  Number of subjects with SAEs: 0
  Number of subjects with discontinuation due to AEs: 0
  Number of subjects with severe AEs: 0
